Experiments:
[1] = molecular target: T1, Adenosine receptor A3 (Homo sapiens, UniProt P0DMS8); assay: Agonist activity at A3 adenosine receptor (unknown origin); assay type: functional
T1 sequence (P0DMS8 whole entry): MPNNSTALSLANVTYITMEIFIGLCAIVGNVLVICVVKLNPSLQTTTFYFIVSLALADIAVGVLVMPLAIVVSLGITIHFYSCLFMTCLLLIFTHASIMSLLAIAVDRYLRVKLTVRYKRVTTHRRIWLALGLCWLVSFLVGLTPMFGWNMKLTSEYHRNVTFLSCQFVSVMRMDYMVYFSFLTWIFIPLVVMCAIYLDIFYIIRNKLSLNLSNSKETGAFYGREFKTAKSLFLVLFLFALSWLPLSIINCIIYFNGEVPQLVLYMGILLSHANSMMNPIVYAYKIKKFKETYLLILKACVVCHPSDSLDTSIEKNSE

[2] = molecular target: T1, Adenosine receptor A3; assay: Agonist activity at human A3 adenosine receptor expressed in Flp-In-CHO cells assessed as calcium influx by competitive binding assay; assay type: functional, cell-based
[3] = molecular target: T1, Adenosine receptor A3; assay: Antagonist activity at N-terminal NLuc tagged human A3 adenosine receptor; assay type: functional
[4] = molecular target: T2, Adenosine receptor A1 (Homo sapiens, UniProt P30542); assay: Binding affinity to N-terminal NLuc tagged human A1 adenosine receptor expressed in Flp-In-CHO cells by competitive binding assay; assay type: cell-based
T2 sequence (P30542 whole entry): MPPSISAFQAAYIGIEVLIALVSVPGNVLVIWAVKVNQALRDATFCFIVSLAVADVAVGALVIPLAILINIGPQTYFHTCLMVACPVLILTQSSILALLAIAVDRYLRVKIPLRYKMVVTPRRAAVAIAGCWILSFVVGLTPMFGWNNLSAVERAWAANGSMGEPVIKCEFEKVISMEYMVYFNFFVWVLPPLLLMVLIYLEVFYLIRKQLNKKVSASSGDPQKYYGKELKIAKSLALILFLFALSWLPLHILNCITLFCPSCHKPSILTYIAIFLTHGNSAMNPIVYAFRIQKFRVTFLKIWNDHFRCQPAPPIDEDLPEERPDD

Structure (SMILES)	EC50 [1]	EC50 [2]	Kd [3]	Ki [4]
O=C(CCCCCNC(=O)COc1ccc(/C=C/C2=[N+]3C(=Cc4ccc(-c5cccs5)n4[B-]3(F)F)C=C2)cc1)NCCCCNc1ncnc2c1ncn2[C@@H]1O[C@H](CO)[C@@H](O)[C@H]1O	50.1 nM	1260 nM		
CCCn1c(=O)c2[nH]c(-c3ccc(OCC(=O)NCCNC(=O)CCCCNC(=O)COc4ccc(/C=C/C5=[N+]6C(=Cc7ccc(-c8cccs8)n7[B-]6(F)F)C=C5)cc4)cc3)nc2n(CCC)c1=O			30.9 nM	9.33 nM

Source: ChEMBL document CHEMBL5042471, “Development and Application of Subtype-Selective Fluorescent Antagonists for the Study of the Human Adenosine A1 Receptor in Living Cells” (J Med Chem, 2021)
